Experimental data taken from ChEMBL document CHEMBL1201862, “PubChem BioAssay data set” (2004).
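Compound exposure: 48 hours, 5 concentrations, 96-well plates. GI50: concentration for 50% inhibition of growth.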 Activity calls are given as the source filed them. Rule as the data show it: active = GI50 up to about 1.1 µM and inactive = higher.

Tests used:
Test in all cases: DTP human tumour cell line panel, 48 h
[1] = test system: 786-0
[2] = test system: SW-620
[3] = test system: HOP-92
[4] = test system: DU-145
[5] = test system: ACHN
[6] = test system: HL-60
[7] = test system: SK-MEL-28
[8] = test system: CAKI-1
[9] = test system: HT-29
[10] = test system: PC-3
[11] = test system: SN12C
[12] = test system: Hs-578T
[13] = test system: NCI-H23
[14] = test system: SK-MEL-5
[15] = test system: UO-31
[16] = test system: OVCAR-3
[17] = test system: SK-MEL-2

Structure (SMILES)	GI50 [1]	GI50 [2]	GI50 [3]	GI50 [4]	GI50 [5]	GI50 [6]	GI50 [7]	GI50 [8]	GI50 [9]	GI50 [10]	GI50 [11]	GI50 [12]	GI50 [13]	GI50 [14]	GI50 [15]	GI50 [16]	GI50 [17]
Cc1ccc(S(=O)ON2CCC(C(=O)O)(c3ccccc3)CC2)cc1 (stereo not given)	0.0773 µM (active)	> 100 µM (inactive)	45.5 µM (inactive)	> 100 µM (inactive)	> 100 µM (inactive)	> 100 µM (inactive)	> 100 µM (inactive)	> 100 µM (inactive)	> 100 µM (inactive)	> 100 µM (inactive)	> 100 µM (inactive)	> 100 µM (inactive)	> 100 µM (inactive)	> 100 µM (inactive)	> 100 µM (inactive)	> 100 µM (inactive)	–
S=c1sscc1N1CCSc2ssc(=S)c21	33.7 µM (inactive)	> 100 µM (inactive)	8.36 µM (inactive)	21.8 µM (inactive)	30.5 µM (inactive)	> 100 µM (inactive)	> 100 µM (inactive)	> 100 µM (inactive)	> 100 µM (inactive)	48.1 µM (inactive)	25.8 µM (inactive)	88.1 µM (inactive)	19.9 µM (inactive)	> 100 µM (inactive)	29.9 µM (inactive)	–	78.2 µM (inactive)
O=C1C(=C(C(F)(F)Cl)C(F)(F)Cl)C2CCC1C2 (stereo not given)	1.87 µM (inactive)	1.82 µM (inactive)	2.58 µM (inactive)	7.53 µM (inactive)	1.84 µM (inactive)	0.238 µM (active)	1.93 µM (inactive)	–	2.19 µM (inactive)	2.07 µM (inactive)	1.97 µM (inactive)	4.51 µM (inactive)	1.96 µM (inactive)	1.67 µM (inactive)	2.49 µM (inactive)	2.45 µM (inactive)	1.78 µM (inactive)
C=CC1(c2ccc(Br)cc2)OCCCO1	> 100 µM (inactive)	> 100 µM (inactive)	> 100 µM (inactive)	> 100 µM (inactive)	> 100 µM (inactive)	> 100 µM (inactive)	> 100 µM (inactive)	–	> 100 µM (inactive)	> 100 µM (inactive)	> 100 µM (inactive)	> 100 µM (inactive)	> 100 µM (inactive)	> 100 µM (inactive)	> 100 µM (inactive)	> 100 µM (inactive)	> 100 µM (inactive)
O=C1c2ccccc2C2C1C(c1ccccc1)C1(Cc3ccccc3C1=O)C2c1ccccc1 (stereo not given)	> 100 µM (inactive)	> 100 µM (inactive)	> 100 µM (inactive)	> 100 µM (inactive)	> 100 µM (inactive)	3.67 µM (inactive)	> 100 µM (inactive)	–	14.8 µM (inactive)	12.5 µM (inactive)	> 100 µM (inactive)	> 100 µM (inactive)	> 100 µM (inactive)	> 55.8 µM (inactive)	> 29.8 µM (inactive)	> 100 µM (inactive)	> 100 µM (inactive)
CC1(C)CCCC(C)(C2CCC3(C)C2C(O)CC2C4(C)CCC(O)C(C)(C)C4CCC23C)O1 (stereo not given)	75.7 µM (inactive)	> 100 µM (inactive)	76.6 µM (inactive)	> 100 µM (inactive)	56.9 µM (inactive)	26.4 µM (inactive)	> 100 µM (inactive)	42.7 µM (inactive)	78.9 µM (inactive)	> 100 µM (inactive)	> 100 µM (inactive)	20.7 µM (inactive)	> 100 µM (inactive)	47.8 µM (inactive)	> 100 µM (inactive)	–	> 100 µM (inactive)
Cc1c2ccccc2c(CSC(=N)N)c2ccccc12	0.143 µM (active)	0.121 µM (active)	0.29 µM (active)	0.084 µM (active)	0.0728 µM (active)	0.111 µM (active)	0.27 µM (active)	–	0.163 µM (active)	0.23 µM (active)	0.152 µM (active)	0.172 µM (active)	0.106 µM (active)	0.162 µM (active)	0.181 µM (active)	0.264 µM (active)	0.192 µM (active)
CCCCNC(=O)Cn1c2ccc(Br)cc2c2nc3ccccc3nc21	> 100 µM (inactive)	> 100 µM (inactive)	> 100 µM (inactive)	> 100 µM (inactive)	> 100 µM (inactive)	–	> 100 µM (inactive)	57.3 µM (inactive)	> 100 µM (inactive)	> 100 µM (inactive)	84.3 µM (inactive)	> 100 µM (inactive)	> 100 µM (inactive)	> 100 µM (inactive)	> 100 µM (inactive)	> 100 µM (inactive)	> 100 µM (inactive)
CC1CC[C@@]2(OC1)OC1C[C@H]3[C@@H]4CC=C5CC(OC6OC(CO)C(OC7OC(CO)C(O)C(OC8OCC(O)C(O)C8O)C7OC7OC(CO)C(OC8OC(C)C(OC9OC(C)C(O)C(O)C9O)C(O)C8O)C(O)C7O)C(O)C6O)CCC5(C)[C@H]4CCC3(C)C1[C@@H]2C (stereo not given in full)	2.37 µM (inactive)	11.4 µM (inactive)	7.46 µM (inactive)	7.87 µM (inactive)	2.5 µM (inactive)	8.99 µM (inactive)	11.2 µM (inactive)	7.55 µM (inactive)	8.17 µM (inactive)	5.32 µM (inactive)	9.35 µM (inactive)	9.29 µM (inactive)	8.97 µM (inactive)	8.69 µM (inactive)	–	10.8 µM (inactive)	6.71 µM (inactive)
O=C1CC(c2ccccc2Cl)C2(C(=O)NC(=O)NC2=O)C(c2ccccc2Cl)C1 (stereo not given)	> 100 µM (inactive)	> 100 µM (inactive)	> 100 µM (inactive)	39.2 µM (inactive)	> 100 µM (inactive)	80.4 µM (inactive)	> 100 µM (inactive)	–	> 100 µM (inactive)	> 100 µM (inactive)	> 100 µM (inactive)	41.4 µM (inactive)	> 100 µM (inactive)	> 100 µM (inactive)	> 100 µM (inactive)	32.6 µM (inactive)	81.1 µM (inactive)
CC(C)(Oc1ccc(C2C[C@H]2Cl)cc1)C(=O)O (stereo not given in full)	> 100 µM (inactive)	> 100 µM (inactive)	> 100 µM (inactive)	> 100 µM (inactive)	–	> 100 µM (inactive)	> 100 µM (inactive)	> 100 µM (inactive)	–	> 100 µM (inactive)	> 100 µM (inactive)	> 100 µM (inactive)	–	> 100 µM (inactive)	–	> 100 µM (inactive)	> 100 µM (inactive)
Cc1ccc(S(=O)(=O)NCCCSCCSCCCN)cc1	–	> 100 µM (inactive)	> 100 µM (inactive)	> 100 µM (inactive)	> 100 µM (inactive)	> 100 µM (inactive)	> 100 µM (inactive)	–	> 100 µM (inactive)	> 100 µM (inactive)	> 100 µM (inactive)	> 100 µM (inactive)	> 100 µM (inactive)	> 100 µM (inactive)	> 100 µM (inactive)	> 100 µM (inactive)	–
COc1ccc(Nc2cc(O)nc(O)n2)cc1	> 100 µM (inactive)	> 100 µM (inactive)	> 100 µM (inactive)	> 100 µM (inactive)	> 100 µM (inactive)	> 100 µM (inactive)	> 100 µM (inactive)	–	> 100 µM (inactive)	> 100 µM (inactive)	> 100 µM (inactive)	> 100 µM (inactive)	> 100 µM (inactive)	> 100 µM (inactive)	> 100 µM (inactive)	> 100 µM (inactive)	–
CCC1(C)C=Cc2c(cc(O)c3c(=O)c4ccccc4n(C)c23)O1 (stereo not given)	> 10 µM (inactive)	> 10 µM (inactive)	> 10 µM (inactive)	> 10 µM (inactive)	> 10 µM (inactive)	–	> 10 µM (inactive)	3.26 µM (inactive)	> 10 µM (inactive)	> 10 µM (inactive)	> 10 µM (inactive)	> 10 µM (inactive)	> 10 µM (inactive)	> 10 µM (inactive)	> 10 µM (inactive)	> 10 µM (inactive)	> 10 µM (inactive)
C=CCn1c(=O)c(Br)nn(CCOCP(=O)(OCC)OCC)c1=O	–	> 100 µM (inactive)	> 100 µM (inactive)	> 100 µM (inactive)	> 100 µM (inactive)	> 100 µM (inactive)	> 100 µM (inactive)	> 100 µM (inactive)	–	> 100 µM (inactive)	> 100 µM (inactive)	> 100 µM (inactive)	> 100 µM (inactive)	61.2 µM (inactive)	> 100 µM (inactive)	> 100 µM (inactive)	> 100 µM (inactive)
Cc1ccc2nc(CN3CCCCC3)cc(=O)n2c1	> 100 µM (inactive)	> 100 µM (inactive)	> 100 µM (inactive)	> 100 µM (inactive)	> 100 µM (inactive)	> 100 µM (inactive)	> 100 µM (inactive)	> 100 µM (inactive)	> 100 µM (inactive)	> 100 µM (inactive)	> 100 µM (inactive)	> 100 µM (inactive)	> 100 µM (inactive)	–	> 100 µM (inactive)	> 100 µM (inactive)	> 100 µM (inactive)
O=C(CC(C(=O)c1cccs1)c1ccccc1)c1ccccc1O (stereo not given)	9.91 µM (inactive)	46 µM (inactive)	7.6 µM (inactive)	36.4 µM (inactive)	11.3 µM (inactive)	–	20 µM (inactive)	8.95 µM (inactive)	11.9 µM (inactive)	14 µM (inactive)	> 20.7 µM (inactive)	5.81 µM (inactive)	> 42.6 µM (inactive)	9.48 µM (inactive)	18.5 µM (inactive)	83 µM (inactive)	> 21.8 µM (inactive)
